Source: EP1268545B1, “POTASSIUM CHANNEL PROTEIN KCNQ5, A TARGET FOR DISEASES OF CENTRAL NERVOUS SYSTEM AND CARDIOVASCULAR SYSTEM” (priority 2000, dated 2001)

Legend:
[1] = tested on: human KCNQ5 (hKCNQ5) potassium channel, SEQ ID No 2; experiment: Two-electrode voltage-clamp of KCNQ5 currents in Xenopus oocytes injected with cRNA; format: cell-based; conditions: 3s depolarizing step from -100 mV to 0 mV
Method: Xenopus laevis oocytes were obtained from tricaine anaesthetized animals. Ovaries were collagenase treated (1 mg/ 1 ml, Worthington, type II) in OR 2 solution (NaCl 82.5 mM, KCl 2 mM, MgCl2 1 mM, HEPES 5 mM, pH 7.4) for 120 min and subsequently stored in recording solution ND-96 (NaCl 96 mM, KCI 2 mM, CaCl2 1.8 mM, MgCl2 1 mM, HEPES 5 mM, pH 7.4) with additional NaPyruvate (275 mg/l), Theophylline (90 mg/l) and Gentamycin (50 mg/l) at 18°C. […] Standard two-electrode voltage-clamp recordings were performed at room temperature with a Turbo Tec 10CD (NPI) amplifier, an ITC-16 interface combined with Pulse software (HEKA) and Origin for data aquisition on Pentium 11 PC. Macroscopic currents were recorded 2-4 days after injection. All fitting procedures were based on the simplex algorithm. Student's t test was used to test for statistical significance, which was assumed if P<0.05 and indicated by *.
However, it can be described by a biexponential function. […] KCNQ5 deactivation was well fitted to a second order exponential function. The two components of deactivation were determined at a repolarizing voltage of -100 mV following a 3s depolarizing step to +40 mV.

KCNQ1 = conditions: cited from earlier work
KCNQ2 = conditions: at 10µM; cited from earlier work
KCNQ3 = conditions: at 10µM; cited from earlier work

Compound | block of KCNQ5 currents ([1]; at 100 µM) | block of KCNQ1 (KCNQ1; at 100 µM) | inhibition of KCNQ2 (KCNQ2) | inhibition of KCNQ3 (KCNQ3) | reduction of KCNQ5 current ([1]; at 30 µM) | IC50 (KCNQ1; read-out: IC50 (block of KCNQ1))
CCS(=O)(=O)N(C)[C@H]1c2cc(C#N)ccc2OC(C)(C)[C@@H]1O (racemic) [chromanol 293B] | 45% | 80% |  |  |  | 
CCCCCCC[N+](CC)(CC)CCCCc1ccc(Cl)cc1 [Clofilium] |  |  | little inhibition | 30% | 40% | < 10 µM
